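Method: 48-hour compound exposure of cells in 96-well plates, five concentrations, linear interpolation of endpoints. GI50 is the concentration that inhibits growth by half.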 Calls of active or inactive are those of the source. No stated cut-off is given here; in the data, active = GI50 up to about 1.1 µM and inactive = higher.
What was measured:
Assay in all cases: inhibition of tumour cell growth, NCI panel, 48 h
HT-29 = test system: HT-29
M14 = test system: M14
UO-31 = test system: UO-31
EKVX = test system: EKVX
SR = test system: SR
SK-MEL-5 = test system: SK-MEL-5
K562 = test system: K562
SN12C = test system: SN12C
COLO 205 = test system: COLO 205
Hs-578T = test system: Hs-578T
HOP-62 = test system: HOP-62
MCF7 = test system: MCF7
RPMI-8226 = test system: RPMI-8226
CCRF-CEM = test system: CCRF-CEM
OVCAR-8 = test system: OVCAR-8
UACC-62 = test system: UACC-62
Malme-3M = test system: Malme-3M
SK-MEL-2 = test system: SK-MEL-2
IGROV-1 = test system: IGROV-1
HCC 2998 = test system: HCC 2998
SNB-19 = test system: SNB-19
NCI-H226 = test system: NCI-H226
NCI-H23 = test system: NCI-H23
SK-MEL-28 = test system: SK-MEL-28
786-0 = test system: 786-0
MDA-MB-231 = test system: MDA-MB-231
BT-549 = test system: BT-549
PC-3 = test system: PC-3
KM12 = test system: KM12
UACC-257 = test system: UACC-257
RXF 393 = test system: RXF 393
TK-10 = test system: TK-10
SW-620 = test system: SW-620
A549 = test system: A549
HCT-116 = test system: HCT-116
HOP-92 = test system: HOP-92
HCT-15 = test system: HCT-15
HL-60 = test system: HL-60
MOLT-4 = test system: MOLT-4
SNB-75 = test system: SNB-75
U-251 = test system: U-251
CAKI-1 = test system: CAKI-1
NCI-H460 = test system: NCI-H460
OVCAR-3 = test system: OVCAR-3
NCI/ADR-RES = test system: NCI/ADR-RES
MDA-N = test system: MDA-N
SK-OV-3 = test system: SK-OV-3
LOX IMVI = test system: LOX IMVI
MDA-MB-435 = test system: MDA-MB-435
ACHN = test system: ACHN
SF-539 = test system: SF-539
DU-145 = test system: DU-145
OVCAR-4 = test system: OVCAR-4
SF-295 = test system: SF-295
OVCAR-5 = test system: OVCAR-5

Measured: GI50

CCOC(=O)c1ccc(/N=C2\S/C(=C\C(=S)Nc3ccccc3)N(c3ccccc3)\C2=N/c2ccc(C(=O)OCC)cc2)cc1
inactive: HT-29 > 100 µM | M14 34.6 µM | UO-31 > 100 µM | EKVX > 100 µM | SR > 100 µM | SK-MEL-5 40.7 µM | K562 > 100 µM | SN12C > 100 µM | COLO 205 > 100 µM | Hs-578T 62.4 µM | HOP-62 > 100 µM | MCF7 > 100 µM | RPMI-8226 > 100 µM | CCRF-CEM > 100 µM | OVCAR-8 > 100 µM | UACC-62 > 100 µM | Malme-3M 21.6 µM | SK-MEL-2 > 100 µM | IGROV-1 > 100 µM | HCC 2998 > 100 µM | SNB-19 > 100 µM | NCI-H226 > 100 µM | NCI-H23 > 100 µM | SK-MEL-28 95.5 µM | 786-0 82 µM | MDA-MB-231 > 100 µM | BT-549 62.7 µM | PC-3 > 100 µM | KM12 > 100 µM | UACC-257 94.2 µM | RXF 393 81.5 µM | TK-10 > 100 µM | SW-620 > 100 µM | A549 > 100 µM | HCT-116 27.2 µM | HOP-92 22.8 µM | HL-60 > 100 µM | MOLT-4 > 100 µM | SNB-75 34.5 µM
> 100 µM: HCT-15

Cc1cc(S(=O)(=O)Nc2nc3ccccc3c(=O)n2N)c(S)cc1Cl
inactive: HT-29 53 µM | M14 39.6 µM | EKVX 43.6 µM | SK-MEL-5 29.6 µM | K562 47.2 µM | SN12C 44.5 µM | COLO 205 > 100 µM | U-251 23.1 µM | CAKI-1 31.8 µM | NCI-H460 33.4 µM | OVCAR-3 44.6 µM | HOP-62 14.8 µM | NCI/ADR-RES 24.5 µM | MCF7 71.1 µM | RPMI-8226 34.7 µM | CCRF-CEM 62.5 µM | OVCAR-8 30.2 µM | UACC-62 20.7 µM | Malme-3M 23.1 µM | MDA-N 38.1 µM | SK-OV-3 32.3 µM | SK-MEL-2 29.3 µM | IGROV-1 43.8 µM | HCC 2998 49.3 µM | LOX IMVI 37.2 µM | MDA-MB-435 32.7 µM | NCI-H226 21.7 µM | NCI-H23 31.8 µM | SK-MEL-28 67.9 µM | 786-0 21.3 µM | MDA-MB-231 32.9 µM | BT-549 47.6 µM | PC-3 69.3 µM | ACHN 33.6 µM | KM12 37.2 µM | UACC-257 59.8 µM | TK-10 48.1 µM | SW-620 59.8 µM | A549 31.1 µM | HCT-116 32 µM | SF-539 27.6 µM | DU-145 43 µM | HL-60 > 100 µM | OVCAR-4 29.6 µM | MOLT-4 47.6 µM | SF-295 28.3 µM | OVCAR-5 55.5 µM
35.5 µM: HCT-15
